Source: US9951028B2, “Agricultural chemicals” (REDAG CROP PROTECTION LTD, priority 2013, dated 2018)

How the values were obtained:
Format in all cases: in vivo
[1] = system: Amaranthus retroflexus (redroot pigweed); assay: Herbicidal efficacy screen, corrected necrosis
Procedure: (§1) Plants were obtained as seeds and were grown to the 2-4 true leaf stage. Plants were grown under laboratory conditions, individually in seed trays. Each plant (in an approximately 3 cm diameter plug) was then detached from the tray for spraying. The compounds were screened at a range of five concentrations, diluted in acetone and Tween™. A carrier only control was also conducted. Treatments were applied directly onto the plants, using a potter tower, at a specified application rate. One plant of each species was sprayed using a potter tower. The 3 different types of plants were placed on a 10 cm diameter platform directly beneath the potter sprayer and sprayed simultaneously. The growth of the plants and any Phytotoxicity effects were then assessed at intervals over 21 days, according to EPPO guideline PP1/135. In the tables below C represents a percentage increase in necrosis relative to the control of 0.1-50; B represents a percentage inhibition of 50-80; and A represents a percentage inhibition of 80-100. Certain compounds of the invention were screened for herbicidal efficacy against target plants: Amaranthus retroflexus (redroot pigweed), Abutilon theophrasti (China Jute): Capsella bursa-pastoris, (shepherd's-purse) Echinochloa crus-galli, Hordeum vulgare (Barley),

[2] = system: Abutilon theophrasti (China Jute); assay: Herbicidal efficacy screen, corrected necrosis
Procedure: as §1

[3] = system: Capsella bursa-pastoris, (shepherd's-purse); assay: Herbicidal efficacy screen, corrected necrosis
Procedure: as §1

[4] = system: garden cress, Lepidium sativum; assay: Herbicidal efficacy screen, potter tower spray, necrosis assessed
Procedure: (§2) Compounds 22, 23 and 24 were screened for herbicidal efficacy against target plants: garden cress, Lepidium sativum, common chickweed, Stellaria media, and white mustard […] alba Plants were obtained as seeds and were grown to the 2-4 true leaf stage. Plants were grown under laboratory conditions, individually in seed trays. Each plant (in an approximately 3 cm diameter plug) was then detached from the tray for spraying. The compounds were screened at a range of five concentrations, diluted in acetone and TweenTM. A carrier only control was also conducted. Treatments were applied directly onto the plants, using a potter tower, at a specified application rate. One plant of each species was sprayed using a potter tower. The 3 different types of plants were placed on a 10 cm diameter platform directly beneath the potter sprayer and sprayed simultaneously. The growth of the plants and any Phytotoxicity effects were then assessed at intervals over 21 days, according to EPPO guideline PP1/135. Five replicas were performed for each treatment, for each species. In the tables below C represents a percentage increase in necrosis relative to the control of 0.1-50; B represents a percentage inhibition of 50-80; and A represents a percentage inhibition of 80-100.

[5] = system: common chickweed, Stellaria media; assay: as above; conditions: 12.5 g/ha
Procedure: as §2

[6] = 6.25 g/ha, day 1 post application
[7] = 6.25 g/ha, day 7 post application
[8] = 12.5 g/ha, day 1 post application
[9] = 12.5 g/ha, day 7 post application
[10] = 25 g/ha, day 1 post application
[11] = 25 g/ha, day 7 post application
[12] = 50 g/ha, day 1 post application
[13] = 50 g/ha, day 7 post application
[14] = 100 g/ha, day 1 post application
[15] = 100 g/ha, day 7 post application

Question: How did the “Average of corrected necrosis” value [1, 6] turn out when `CC(C)C(C)S(=O)(=O)NCc1cc(-n2c(=O)cc(C(F)(F)F)n(C)c2=O)c(F)cc1Cl` (stereo not shown) [Compound 24, N-[[2-Chloro-4-fluoro-5-[3-methyl-2,6-dioxo-4-(trifluoromethyl)pyrimidin-1-yl]phenyl]methyl]-3-methyl-butane-2-sulfonamide] was run?
Answer: C (C represents a percentage increase in necrosis relative to the control of 0.1-50)

Question: What about the “Average of corrected necrosis” value [1, 7] of the same compound?
Answer: A (A represents a percentage inhibition of 80-100)

Question: And the “Average of corrected necrosis” value [1, 8]?
Answer: C (C represents a percentage increase in necrosis relative to the control of 0.1-50)

Question: And the “Average of corrected necrosis” value [1, 9]?
Answer: A (A represents a percentage inhibition of 80-100)

Question: What about the “Average of corrected necrosis” value [1, 10] of the same compound?
Answer: C (C represents a percentage increase in necrosis relative to the control of 0.1-50)

Question: What about the “Average of corrected necrosis” value [1, 11] of the same compound?
Answer: A (A represents a percentage inhibition of 80-100)

Question: What about the “Average of corrected necrosis” value [1, 12] of the same compound?
Answer: C (C represents a percentage increase in necrosis relative to the control of 0.1-50)

Question: And the “Average of corrected necrosis” value [1, 13]?
Answer: A (A represents a percentage inhibition of 80-100)

Question: And the “Average of corrected necrosis” value [1, 14]?
Answer: C (C represents a percentage increase in necrosis relative to the control of 0.1-50)

Question: And the “Average of corrected necrosis” value [1, 15]?
Answer: A (A represents a percentage inhibition of 80-100)

Question: What about the “Average of corrected necrosis” value [2, 6] of the same compound?
Answer: 0%

Question: What about the “Average of corrected necrosis” value [2, 7] of the same compound?
Answer: A (A represents a percentage inhibition of 80-100)

Question: What about the “Average of corrected necrosis” value [2, 8] of the same compound?
Answer: 0%

Question: And the “Average of corrected necrosis” value [2, 9]?
Answer: A (A represents a percentage inhibition of 80-100)

Question: What about the “Average of corrected necrosis” value [2, 10] of the same compound?
Answer: 0%

Question: And the “Average of corrected necrosis” value [2, 11]?
Answer: A (A represents a percentage inhibition of 80-100)

Question: And the “Average of corrected necrosis” value [2, 12]?
Answer: 0%

Question: What about the “Average of corrected necrosis” value [2, 13] of the same compound?
Answer: A (A represents a percentage inhibition of 80-100)

Question: And the “Average of corrected necrosis” value [2, 14]?
Answer: C (C represents a percentage increase in necrosis relative to the control of 0.1-50)

Question: What about the “Average of corrected necrosis” value [2, 15] of the same compound?
Answer: A (A represents a percentage inhibition of 80-100)

Question: And the “Average of corrected necrosis” value [3, 6]?
Answer: C (C represents a percentage increase in necrosis relative to the control of 0.1-50)

Question: And the “Average of corrected necrosis” value [3, 7]?
Answer: A (A represents a percentage inhibition of 80-100)

Question: What about the “Average of corrected necrosis” value [3, 8] of the same compound?
Answer: 0%

Question: And the “Average of corrected necrosis” value [3, 9]?
Answer: B (B represents a percentage inhibition of 50-80)

Question: And the “Average of corrected necrosis” value [3, 10]?
Answer: C (C represents a percentage increase in necrosis relative to the control of 0.1-50)

Question: And the “Average of corrected necrosis” value [3, 11]?
Answer: A (A represents a percentage inhibition of 80-100)

Question: And the “Average of corrected necrosis” value [3, 12]?
Answer: C (C represents a percentage increase in necrosis relative to the control of 0.1-50)

Question: What about the “Average of corrected necrosis” value [3, 13] of the same compound?
Answer: A (A represents a percentage inhibition of 80-100)

Question: And the “Average of corrected necrosis” value [3, 14]?
Answer: C (C represents a percentage increase in necrosis relative to the control of 0.1-50)

Question: What about the “Average of corrected necrosis” value [3, 15] of the same compound?
Answer: A (A represents a percentage inhibition of 80-100)

Question: And the Average of necrosis [4, 8]?
Answer: C (C represents a percentage increase in necrosis relative to the control of 0.1-50)

Question: What about the Average of necrosis ([4]; 12.5 g/ha, day 2 post application) of the same compound?
Answer: C (C represents a percentage increase in necrosis relative to the control of 0.1-50)

Question: And the Average of necrosis ([4]; 12.5 g/ha, day 3 post application)?
Answer: C (C represents a percentage increase in necrosis relative to the control of 0.1-50)

Question: And the Average of necrosis ([4]; 12.5 g/ha, day 4 post application)?
Answer: C (C represents a percentage increase in necrosis relative to the control of 0.1-50)

Question: And the Average of necrosis ([4]; 12.5 g/ha, day 5 post application)?
Answer: C (C represents a percentage increase in necrosis relative to the control of 0.1-50)

Question: What about the Average of necrosis [4, 9] of the same compound?
Answer: C (C represents a percentage increase in necrosis relative to the control of 0.1-50)

Question: What about the Average of necrosis ([4]; 12.5 g/ha, day 10 post application) of the same compound?
Answer: B (B represents a percentage inhibition of 50-80)

Question: What about the Average of necrosis [4, 10] of the same compound?
Answer: C (C represents a percentage increase in necrosis relative to the control of 0.1-50)

Question: And the Average of necrosis ([4]; 25 g/ha, day 2 post application)?
Answer: C (C represents a percentage increase in necrosis relative to the control of 0.1-50)

Question: And the Average of necrosis ([4]; 25 g/ha, day 3 post application)?
Answer: C (C represents a percentage increase in necrosis relative to the control of 0.1-50)

Question: And the Average of necrosis ([4]; 25 g/ha, day 4 post application)?
Answer: C (C represents a percentage increase in necrosis relative to the control of 0.1-50)

Question: What about the Average of necrosis ([4]; 25 g/ha, day 5 post application) of the same compound?
Answer: C (C represents a percentage increase in necrosis relative to the control of 0.1-50)

Question: What about the Average of necrosis [4, 11] of the same compound?
Answer: C (C represents a percentage increase in necrosis relative to the control of 0.1-50)

Question: What about the Average of necrosis ([4]; 25 g/ha, day 10 post application) of the same compound?
Answer: C (C represents a percentage increase in necrosis relative to the control of 0.1-50)

Question: What about the Average of necrosis [4, 12] of the same compound?
Answer: C (C represents a percentage increase in necrosis relative to the control of 0.1-50)

Question: And the Average of necrosis ([4]; 50 g/ha, day 2 post application)?
Answer: C (C represents a percentage increase in necrosis relative to the control of 0.1-50)

Question: And the Average of necrosis ([4]; 50 g/ha, day 3 post application)?
Answer: B (B represents a percentage inhibition of 50-80)

Question: And the Average of necrosis ([4]; 50 g/ha, day 4 post application)?
Answer: B (B represents a percentage inhibition of 50-80)

Question: What about the Average of necrosis ([4]; 50 g/ha, day 5 post application) of the same compound?
Answer: B (B represents a percentage inhibition of 50-80)

Question: What about the Average of necrosis [4, 13] of the same compound?
Answer: A (A represents a percentage inhibition of 80-100)

Question: What about the Average of necrosis ([4]; 50 g/ha, day 10 post application) of the same compound?
Answer: A (A represents a percentage inhibition of 80-100)

Question: And the Average of necrosis [4, 14]?
Answer: C (C represents a percentage increase in necrosis relative to the control of 0.1-50)

Question: And the Average of necrosis ([4]; 100 g/ha, day 2 post application)?
Answer: C (C represents a percentage increase in necrosis relative to the control of 0.1-50)

Question: What about the Average of necrosis ([4]; 100 g/ha, day 3 post application) of the same compound?
Answer: C (C represents a percentage increase in necrosis relative to the control of 0.1-50)

Question: And the Average of necrosis ([4]; 100 g/ha, day 4 post application)?
Answer: B (B represents a percentage inhibition of 50-80)

Question: And the Average of necrosis ([4]; 100 g/ha, day 5 post application)?
Answer: B (B represents a percentage inhibition of 50-80)

Question: What about the Average of necrosis [4, 15] of the same compound?
Answer: B (B represents a percentage inhibition of 50-80)

Question: And the Average of necrosis ([4]; 100 g/ha, day 10 post application)?
Answer: B (B represents a percentage inhibition of 50-80)

Question: What about the Average of necrosis ([4]; 200 g/ha, day 1 post application) of the same compound?
Answer: C (C represents a percentage increase in necrosis relative to the control of 0.1-50)

Question: What about the Average of necrosis ([4]; 200 g/ha, day 2 post application) of the same compound?
Answer: C (C represents a percentage increase in necrosis relative to the control of 0.1-50)

Question: What about the Average of necrosis ([4]; 200 g/ha, day 3 post application) of the same compound?
Answer: C (C represents a percentage increase in necrosis relative to the control of 0.1-50)

Question: And the Average of necrosis ([4]; 200 g/ha, day 4 post application)?
Answer: C (C represents a percentage increase in necrosis relative to the control of 0.1-50)

Question: And the Average of necrosis ([4]; 200 g/ha, day 5 post application)?
Answer: C (C represents a percentage increase in necrosis relative to the control of 0.1-50)

Question: And the Average of necrosis ([4]; 200 g/ha, day 7 post application)?
Answer: C (C represents a percentage increase in necrosis relative to the control of 0.1-50)

Question: And the Average of necrosis ([4]; 200 g/ha, day 10 post application)?
Answer: B (B represents a percentage inhibition of 50-80)

Question: What about the Average of necrosis ([5]; day 1 post application) of the same compound?
Answer: C (C represents a percentage increase in necrosis relative to the control of 0.1-50)

Question: What about the Average of necrosis ([5]; day 2 post application) of the same compound?
Answer: C (C represents a percentage increase in necrosis relative to the control of 0.1-50)
